Assay results from patent US10759754B2, “Aminobenzoic acid derivatives for use as anti-inflammatory agents, anti-metastatic agents and/or anticancer agents” (3R VALO, S.E.C., priority 2016, dated 2020).
Entries after “also recorded” stand apart in the source; their conditions may differ.

Key:
[1] = test system: NFκB; experiment: NFκB-responsive luciferase assay in MB49-I cells; assay type: cell-based, murine; conditions: 50 μM
Source text: Luciferase assay. To assess the transcriptional activity of NFκB in response to TNFα, MB49-I cells cultured in monolayers (7.5×10^4 cells/well in 24-well plates) were transiently transfected with an expression vector allowing the transcription of the firefly luciferase reporter gene under the control of CMV promoter and tandem repeats of the NFκB transcriptional response element. The luciferase gene encodes a 61-kDa enzyme that oxidizes D-luciferin in the presence of ATP, oxygen, and Mg^++, yielding a […] product that can be quantified by measuring the released light. Transfection was performed using Opti-MEM reduced serum media and Lipofectamine 2000 (Thermo Fisher Scientific). Then, MB49-I cells were pretreated for 30 min with vehicle (DMSO) and compound 4 (at 10 μM or 30 μM); and then washed and recovered after 24 h of activation with 10 ng/mL or 50 ng/mL TNFα. Cell lysates were mixed with Luciferase assay reagent (a mixture of luciferine, coenzyme A, ATP and Mg^2+) and the light produced was measured using a luminometer.

[2] = test system: MB49-I tumors; experiment: Orthotopic UBC model, MB49-I tumors implanted in the bladder of female mice; assay type: in vivo; conditions: i.p. biweekly at 150 μM during two weeks
Experimental: Orthotopic UBC model. Female C57BL/6J mice (6-8 weeks old), each weighing 15-18 g, were anesthetized and a 24-gauge Teflon catheter was introduced into the bladder lumen through the urethra. To prepare the bladder for tumor implantation, a point lesion was induced in the bladder wall by electrocauterization. Then, 1×10^5 of MB49-I cells in 100 μl of PBS were instilled into the bladder. When indicated, control mice were electrocauterized and PBS was instilled into the bladder. Syringes containing the cell suspension were maintained into the catheter for 20 min to allow cell attachment to the bladder wall.^24,27

For CC(C)(C)OC(=O)NNC(=O)c1ccc(N2C(=O)C=CC2=O)cc1 [Compound 4, N′-[4-(2,5-dioxo-2,5-dihydro-pyrrol-1-yl)-benzoyl]-hydrazine carboxylic acid tert-butyl ester], the “NFκB activation (luciferase assay)” value [1] was “efficiently inhibited” and the “development of muscle-invasive MB49-I tumors in the bladder” value [2] was “stopped; also recorded: completely abolished”.
